Data taken from PMC8296708, “The pan HDAC inhibitor Givinostat improves muscle function and histological parameters in two Duchenne muscular dystrophy murine models expressing different haplotypes of the LTBP4 gene” (Skeletal Muscle, 2021).

What was measured:
mdx mice [1] = assay: Treadmill run to exhaustion test in mdx mice; type: in vivo, mouse (C57BL/10ScSn-Dmd^mdx/J); conditions: for Distance run: 37.5 mg/kg p.o.
Text: For the efficacy studies, C57BL/10 J (Stock No: 000665) wild type (wt) and C57BL/10ScSn-Dmd^mdx/J (Stock No: 001801) 7–8-week-old male mice, DBA/2J wt (Stock No: 000671), and D2.B10-Dmd^mdx/J (Stock No: 013141) 6–7-week-old male mice were purchased from The Jackson Laboratories (Bar Harbor, Maine, USA). After 5 days of acclimatization in the animal facility, mice were randomized into different treatment groups based on their BW. C57BL/10J wt mice were assigned to the naive wt group (healthy mice that received no treatment, but were subjected to functional tests), whereas mdx mice were assigned to the following groups (9 mice/group; 4–5 mice/cage): naive mdx (mice that received no treatment, but were subjected to functional tests), vehicle (0.5% methylcellulose, p.o.), and Givinostat (0.1, 0.3, 1, 5, 10, 25, and 37.5 mg/kg, p.o.). DBA/2J mice were assigned to the naive wt group (healthy mice that received no treatment, but were subjected to functional tests), whereas D2.B10 mice were assigned to the following groups (12–13 mice/group; 4–5 mice/gage): vehicle (filtered tap water, p.o.), Givinostat (1, 5, 10, and 37.5 mg/kg, p.o.), prednisone 1 mg/kg, and Deflazacort 1 mg/kg (i.p.).
In the efficacy studies, Givinostat powder (ITF2357) was suspended in 0.5% methylcellulose (Sigma-Aldrich) and administered p.o. (by gavage) at the doses of 0.1, 0.3, 1, 5, 10, 25, and 37.5 mg/kg qdx5x15weeks (administration volume per mouse: 10 mL/kg) in mdx mice (see Additional Figure 1A). Vehicle-treated mdx mice received 0.5% methylcellulose suspension. Givinostat suspension was stored at + 4 °C, and it was freshly prepared every 7 days. Probably due to the impairment of their tongue and masticatory muscles, the oral gavage procedure turned out to be difficult to perform, and chronic treatment of D2.B10 mice by this route was considered to bear a high risk of damaging the esophagus. For this reason, Givinostat was administered in the drinking water. Givinostat was dissolved in filtered tap water and was administered in drinking water (throughout 24 h) for 105 days at the dose of 1, 5, 10, and 37.5 mg/kg/day, according to a daily estimate of water consumption of 4 ml/mouse/day. Water consumption was weekly monitored throughout the entire duration of the study weighing the bottle of each cage (maximum 4 mice per cage). Prednisone and Deflazacort powder (Sigma-Aldrich) was dissolved in 2% DMSO (Sigma-Aldrich) and diluted in sterile saline on injection days. Both drugs were administered weekly (for 15 weeks) by i.p. injection at the dose of 1 mg/kg in a volume of 10 mL/kg. Givinostat and steroid treatments started on days 7 and 9 of the experimental plan, respectively (see Additional Figure 1B). All mice were monitored daily and tolerability was evaluated on the basis of BW and clinical signs.
Run to exhaustion performance of mdx and D2.B10 mice was evaluated every 14 or 21 days, respectively, using a treadmill apparatus (Ugo Basile SRL, Italy). The exhaustion protocol consisted in an initially horizontal running at 5 m/min for 5 min after which the speed was increased 1 m/min every minute until exhaustion (the procedure was compliant with the standard operating procedures of TREAT–NMD Neuromuscular Network). The test was concluded when mice remained for more than 10 s on the shocker plate (for both C57BL/10 J and mdx mice) or when D2.B10 mice reached a maximum number of shocks. Due to the excessive stress caused to D2.B10 mice by this functional test, a maximum number of 600 and 150 shocks was set. These experimental conditions were also applied to the DBA/2J wt healthy mice.
After taking baseline readings for behavioral assays (FNmax and distance run by the animals), mice were re-randomized based on these two parameters, also considering the previous randomization performed on their BW.
The grip strength and run to exhaustion tests were performed during the light-cycle phase, in the early hours of the morning (8:00–11:30 am). […]

mdx mice [2] = assay: Centralized nuclei (%) in muscles of mdx mice; type: in vivo, mouse (C57BL/10ScSn-Dmd^mdx/J); conditions: T16
Text: Tibialis anterior (TA), gastrocnemius (GAS), DIA, and heart were collected from mice maintained under isoflurane anesthesia and sacrificed by cervical dislocation. These muscles were collected from C57BL/10J wt and mdx (5 mice/group) at the end of treatments and from DBA/2J wt and D2.B10 mice (5 mice/group) at two different time points to be examined by a pathologist (for more details see Additional Table 1). Due to the results obtained by the functional tests, muscles from only some treatment groups were analyzed in both DMD models (see Additional Table 1). All the collected muscles were fixed in 10% buffered formalin solution (Bio-optica, Milan, Italy) at + 4 °C for at least 48 h. After fixation, muscular samples were transversely trimmed, caged, and paraffin embedded overnight with an Automated Vacuum Tissue Processor Floor (ETP, Histo-Line Laboratories) and included in paraffin blocks. Serial transverse cross-sections (4 μm thick) were cut with a microtome (Leica RM 2255), collected onto uncoated glass slides, and stained using a standard protocol for hematoxylin and eosin (Mayer hematoxylin & Aqueous G Eosin 1%, Bio-Optica) and Sirius Red staining (Direct Red 80, Sigma-Aldrich). For the image analysis and quantitation, hematoxylin and eosin- and Sirius Red-stained slides were examined with an Olympus BX51 light microscope. From each sample, 1 to 3 random microphotographs at the magnification of × 4 and × 10 (TA, GAS and heart) or × 20 (DIA) were collected using Image-Pro Plus system. The digital images were processed by a pathologist using ImageJ software (U.S. National Institutes of Health, Bethesda, MD, USA). To quantify CSA and centralized nuclei (%) on hematoxylin and eosin-stained sections, one hundred myofibers were manually measured for each muscle/mouse using a tablet pen (Wacom Intruos) and analyzed by the ImageJ software after a linear calibration of 150 μm. The fibrotic area, corresponding to the area stained in red, was compared to the total area of the tissue section, and the results were expressed as percentage fibrosis. The % of fibrosis of muscles in the different treatment groups was expressed by averaging the three values obtained from each muscle.

Question: `CCN(CC)Cc1ccc2cc(COC(=O)Nc3ccc(C(=O)NO)cc3)ccc2c1` [Givinostat] was tested. Which Distance run (mdx mice [1]; day 31) did it give?
Answer: The Distance run was 785 ± 97 m.

Question: And the Distance run (mdx mice [1]; day 44)?
Answer: The Distance run was 693 ± 103 m.

Question: And the Distance run (mdx mice [1]; day 94)?
Answer: The Distance run was 410 ± 40 m.

Question: What about the “Lowest effective dose on time to exhaustion” value (mdx mice [1]; day 94) of the same molecule?
Answer: The value was 0.3 mg/kg.

Question: What about the Time to exhaustion (mdx mice [1]; highest dose (37.5 mg/kg), day 94, vs vehicle) of the same molecule?
Answer: Its Time to exhaustion is “significantly prolonged the time to exhaustion”.

Question: What about the “Distance run, significance of doses lower than 37.5 mg/kg” value (mdx mice [1]; lower doses, trend of dose-response) of the same molecule?
Answer: Its value is “did not reach significance”.

Question: What about the “Nuclear centralization in DIA” value (mdx mice [2]; 1 mg/kg) of the same molecule?
Answer: Its value is 57 ± 2.9%.

Question: What about the “Nuclear centralization in GAS” value (mdx mice [2]; 1 mg/kg) of the same molecule?
Answer: The value was 67.6 ± 2.4%.

Question: And the “Nuclear centralization in TA” value (mdx mice [2]; 1 mg/kg)?
Answer: The value was 71 ± 1.6%.

Question: What about the “Nuclear centralization in DIA” value (mdx mice [2]; 10 mg/kg) of the same molecule?
Answer: Its value is 61.4 ± 3.5%.

Question: And the “Nuclear centralization in GAS” value (mdx mice [2]; 10 mg/kg)?
Answer: Its value is 58 ± 3%.

Question: And the “Nuclear centralization in TA” value (mdx mice [2]; 10 mg/kg)?
Answer: Its value is 73.2 ± 3.7%.

Question: And the “Nuclear centralization in DIA” value (mdx mice [2]; 37.5 mg/kg)?
Answer: The value was 41.4 ± 4.5%.

Question: And the “Nuclear centralization in GAS” value (mdx mice [2]; 37.5 mg/kg)?
Answer: The value was 61.3 ± 3.8%.

Question: What about the “Nuclear centralization in TA” value (mdx mice [2]; 37.5 mg/kg) of the same molecule?
Answer: The value was 60.8 ± 2.5%.
